Test results from ChEMBL document CHEMBL4387741, “Optimization of novel reversible Bruton's tyrosine kinase inhibitors identified using Tethering-fragment-based screens” (Bioorg Med Chem, 2019).
pIC50, pKd: −log10 of the molar value.

Tests used:
[1] = molecular target: Tyrosine-protein kinase ITK/TSK (Homo sapiens, UniProt Q08881); assay: Binding affinity to wild-type human partial length ITK (R335 to L620 residues) expressed in bacterial expression system by Kinomescan method
[2] = molecular target: Tyrosine-protein kinase Tec (Homo sapiens, UniProt P42680); assay: Binding affinity to wild-type human partial length TEC (L341 to D620 residues) expressed in bacterial expression system by Kinomescan method
[3] = molecular target: Tyrosine-protein kinase TXK (Homo sapiens, UniProt P42681); assay: Binding affinity to wild-type human partial length TXK tyrosine kinase (L238 to W527 residues) expressed in bacterial expression system by Kinomescan method
[4] = molecular target: Cytochrome P450 3A4 (Homo sapiens, UniProt P08684); assay: Inhibition of CYP3A4 (unknown origin)
[5] = molecular target: Cytochrome P450 2C9 (Homo sapiens, UniProt P11712); assay: Inhibition of CYP2C9 (unknown origin)
[6] = molecular target: Cytochrome P450 2C19 (Homo sapiens, UniProt P33261); assay: Inhibition of CYP2C19 (unknown origin)
[7] = molecular target: Cytochrome P450 1A2 (Homo sapiens, UniProt P05177); assay: Inhibition of CYP1A2 (unknown origin)
[8] = molecular target: Cyclin-dependent kinase-like 2 (Homo sapiens) (UniProt Q92772); assay: Inhibition of wild-type human partial length CDKL2 (M1 to D327 residues) expressed in bacterial expression system at 1 uM by Kinomescan method relative to control
[9] = molecular target: Focal adhesion kinase 1 (Homo sapiens) (UniProt Q05397); assay: Inhibition of wild-type human partial length FAK (D402 to R696 residues) expressed in bacterial expression system at 1 uM by Kinomescan method relative to control
[10] = molecular target: Mast/stem cell growth factor receptor Kit (Homo sapiens) (UniProt P10721); assay: Inhibition of wild-type human partial length KIT (I571 to D952 residues) expressed in bacterial expression system at 1 uM by Kinomescan method relative to control
[11] = system: Mast/stem cell growth factor receptor Kit (Homo sapiens), P10721 [D816V]; assay: Inhibition of human partial length KIT D816V mutant (I571 to D952 residues) expressed in bacterial expression system at 1 uM by Kinomescan method relative to control
[12] = molecular target: Macrophage-stimulating protein receptor (Homo sapiens) (UniProt Q04912); assay: Inhibition of wild-type human partial length MST1R (I1057 to L1363 residues) expressed in bacterial expression system at 1 uM by Kinomescan method relative to control
[13] = molecular target: Serine/threonine-protein kinase Nek9 (Homo sapiens) (UniProt Q8TD19); assay: Inhibition of wild-type human partial length NEK9 (P32 to R328 residues) expressed in bacterial expression system at 1 uM by Kinomescan method relative to control
[14] = molecular target: TGF-beta receptor type-2 (Homo sapiens) (UniProt P37173); assay: Inhibition of wild-type human partial length TGFBR2 (I218 to K567 residues) expressed in bacterial expression system at 1 uM by Kinomescan method relative to control
[15] = molecular target: Serine/threonine-protein kinase WNK2 (Homo sapiens) (UniProt Q9Y3S1); assay: Inhibition of wild-type human partial length WNK2 (V47 to D482 residues) expressed in mammalian expression system at 1 uM by Kinomescan method relative to control
[16] = system: B cell; assay: Antiproliferative activity against goat anti-human IgM antibody/recombinant human IL4-stimulated human PBMC-derived B cells assessed as decrease in cell viability pretreated for 30 mins followed by goat anti-human IgM antibody/recombinant human IL4 stimulation for 3 days by CellTiter-Glo reagent assay; type: functional, cell-based
[17] = system: B cell; assay: Antiproliferative activity against goat anti-human IgM antibody-stimulated human PBMC-derived B cells assessed as decrease in cell viability pretreated for 30 mins followed by goat anti-human IgM antibody stimulation for 3 days by CellTiter-Glo reagent assay; type: functional, cell-based
[18] = system: B cell; assay: Antiproliferative activity against goat anti-human IgM antibody/BAFF-stimulated human PBMC-derived B cells assessed as decrease in cell viability pretreated for 30 mins followed by goat anti-human IgM antibody/BAFF stimulation for 3 days by CellTiter-Glo reagent assay; type: functional, cell-based
[19] = system: Tyrosine-protein kinase ABL1 (Homo sapiens), P00519 [T315I]; assay: Inhibition of human non-phosphorylated ABL1 T315I mutant (S229 to K512 residues) expressed in mammalian expression system at 10 uM by Kinomescan method relative to control
[20] = molecular target: Atypical kinase COQ8B, mitochondrial (Homo sapiens) (UniProt Q96D53); assay: Inhibition of wild-type human full length ADCK4 (M1 to S544 residues) expressed in bacterial expression system at 10 uM by Kinomescan method relative to control
[21] = molecular target: 5'-AMP-activated protein kinase catalytic subunit alpha-2 (Homo sapiens) (UniProt P54646); assay: Inhibition of wild-type human partial length AMPK alpha2 (M1 to E306 residues) expressed in bacterial expression system at 10 uM by Kinomescan method relative to control
[22] = molecular target: Cyclin-dependent kinase 7 (Homo sapiens) (UniProt P50613); assay: Inhibition of wild-type human full length CDK7 (M1 to L344 residues) expressed in mammalian expression system at 10 uM by Kinomescan method relative to control
[23] = molecular target: Cyclin-dependent kinase 9 (Homo sapiens) (UniProt P50750); assay: Inhibition of wild-type human full length CDK9 (M1 to F372 residues) expressed in bacterial expression system at 10 uM by Kinomescan method relative to control
[24] = system: Epidermal growth factor receptor (Homo sapiens), P00533 [UNDEFINED MUTATION]; assay: Inhibition of human partial length EGFR S752-I759del mutant expressed in bacterial expression system at 10 uM by Kinomescan method relative to control
[25] = molecular target: Fibroblast growth factor receptor 2 (Homo sapiens) (UniProt P21802); assay: Inhibition of wild-type human partial length FGFR2 (D457 to E769 residues) expressed in bacterial expression system at 10 uM by Kinomescan method relative to control
[26] = molecular target: Dual specificity mitogen-activated protein kinase kinase 5 (Homo sapiens) (UniProt Q13163); assay: Inhibition of wild-type human partial length MEK5 (L98 to P448 residues) expressed in mammalian expression system at 10 uM by Kinomescan method relative to control
[27] = molecular target: Serine/threonine-protein kinase pim-1 (Homo sapiens) (UniProt P11309); assay: Inhibition of wild-type human partial length PIM1 (A15 to K313 residues) expressed in bacterial expression system at 10 uM by Kinomescan method relative to control
[28] = molecular target: STE20-like serine/threonine-protein kinase (Homo sapiens) (UniProt Q9H2G2); assay: Inhibition of wild-type human partial length SLK (S14 to A307 residues) expressed in bacterial expression system at 10 uM by Kinomescan method relative to control
[29] = molecular target: Wee1-like protein kinase 2 (Homo sapiens) (UniProt P0C1S8); assay: Inhibition of wild-type human partial length WEE2 (M204 to K492 residues) expressed in bacterial expression system at 10 uM by Kinomescan method relative to control

Compound	pKd [1]	pKd [2]	pKd [3]	pIC50 [4]	pIC50 [5]	pIC50 [6]	pIC50 [7]	pIC50 [16]	pIC50 [17]	pIC50 [18]	other results
O=C(Nc1cccc([C@@H]2CN(c3ncnc4[nH]ccc34)CCN2CCO)c1)Nc1c(F)cccc1N1CCCC1	8.30	6.38	6.28	< 5.30	< 5.30	< 5.30	< 5.30	6.62	6.60	7.04	inhibition [8]: 100%; inhibition [9]: 90%; inhibition [10]: 73%; inhibition [11]: 2%; inhibition [12]: 100%; inhibition [13]: 95%; inhibition [14]: 100%; inhibition [15]: 99%
O=C(Nc1cccc([C@H]2CCCN(c3ncnc4[nH]ccc34)C2)c1)Nc1ccccc1N1CCCC1	6.40	< 6.00	< 6.00	6.00	5.74	5.66	5.66	5.72	6.00	6.04	inhibition [19]: 65%; inhibition [20]: 100%; inhibition [21]: 4.7%; inhibition [22]: 70%; inhibition [23]: 100%; inhibition [24]: 78%; inhibition [25]: 24%; inhibition [26]: 18%; inhibition [27]: 84%; inhibition [28]: 28%; inhibition [29]: 100%
